Experimental data reported in ChEMBL document CHEMBL1201862, “PubChem BioAssay data set” (2004).
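Test compounds were applied to cells in 96-well plates for 48 hours at 5 doses. GI50 = concentration required for 50% inhibition of growth.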 Calls of active or inactive are those of the source. Rule as the data show it: active = GI50 up to about 1.1 µM and inactive = higher.

How the values were obtained:
Assay in all cases: DTP human tumour cell line panel, 48 h
[1] = system: M14
[2] = system: NCI-H522
[3] = system: U-251
[4] = system: SN12C
[5] = system: HCT-116
[6] = system: IGROV-1
[7] = system: RPMI-8226
[8] = system: OVCAR-5
[9] = system: OVCAR-3
[10] = system: RXF 393
[11] = system: SK-MEL-28
[12] = system: Malme-3M
[13] = system: NCI-H23

Measured: GI50

CC(C)(CN1CCCCC1)C(=O)CC(SCCN)c1ccc(Cl)cc1 (stereo not given)
inactive: [1] 1.82 µM | [2] 2.18 µM | [3] 3.12 µM | [4] 1.49 µM | [5] 2.37 µM | [6] 2.7 µM | [7] 1.38 µM | [8] 3.66 µM | [9] 1.55 µM | [10] 1.81 µM | [11] 3.43 µM | [12] 3.1 µM | [13] 1.95 µM

c1ccc(CNn2nnc3ccccc32)cc1
inactive: [1] > 100 µM | [2] > 100 µM | [4] > 100 µM | [6] > 100 µM | [7] > 100 µM | [8] > 100 µM | [9] > 100 µM | [10] > 100 µM | [11] > 100 µM | [12] > 100 µM | [13] > 100 µM

O=c1c2c(c1=O)-c1ccccc1CN2
inactive: [1] > 100 µM | [2] > 100 µM | [3] > 100 µM | [4] > 100 µM | [5] > 100 µM | [6] > 100 µM | [7] > 100 µM | [8] > 100 µM | [9] > 100 µM | [10] > 100 µM | [11] > 100 µM | [12] > 100 µM | [13] > 100 µM

N=C(N)NS(=O)(=O)c1ccc(NC(=O)c2ccc(Cl)c3c(Nc4ccc(S(=O)(=O)N=C(N)N)cc4)c4ccccc4nc23)cc1
inactive: [1] > 100 µM | [2] 38.2 µM | [3] 76.7 µM | [4] > 100 µM | [6] 76.4 µM | [7] 85.1 µM | [8] > 100 µM | [9] 32.2 µM | [10] > 100 µM | [11] 61 µM | [12] > 100 µM | [13] > 100 µM

O=C(OC1CCC(=C2SCCCS2)[C@H]1C1SCCCS1)c1ccccc1 (stereo not given in full)
inactive: [1] > 100 µM | [3] > 100 µM | [4] > 100 µM | [5] 88.3 µM | [6] > 100 µM | [7] 86.3 µM | [9] > 100 µM | [10] 67.1 µM | [12] 94.6 µM | [13] > 100 µM

O=P1(Oc2ccccc2)C(c2ccccc2)C(c2ccccc2)=NN1c1ccccc1 (stereo not given)
inactive: [1] 19.7 µM | [2] 19 µM | [3] 18 µM | [4] 25.9 µM | [5] 17.2 µM | [6] 26.2 µM | [8] 25.4 µM | [9] 19.7 µM | [10] 24.2 µM | [11] 25.6 µM | [12] 43.7 µM | [13] 22.8 µM

Cc1nc(-c2cccnc2)sc1C(=O)/C=C/c1ccc(Cl)cc1Cl
inactive: [2] 94.6 µM | [3] > 100 µM | [4] > 100 µM | [6] > 100 µM | [7] 31.5 µM | [8] > 100 µM | [9] > 100 µM | [10] 53.8 µM | [11] > 100 µM | [12] > 100 µM | [13] > 100 µM

CC(C)OP(=O)(OC(C)C)/C(=N/Nc1ccccc1[N+](=O)[O-])NCCN/C(=N\Nc1ccccc1[N+](=O)[O-])P(=O)(OC(C)C)OC(C)C
inactive: [1] 36.1 µM | [2] 31.8 µM | [3] 29.6 µM | [4] 43.7 µM | [5] 27.9 µM | [6] 27.9 µM | [7] 28.2 µM | [8] 24.2 µM | [9] 42.7 µM | [11] 39.4 µM | [12] 23.1 µM | [13] 14.5 µM

O=C(O)c1ccc(C2C3C=CC(C3)C2[N+](=O)[O-])cc1 (stereo not given)
inactive: [1] > 100 µM | [2] > 100 µM | [3] > 100 µM | [4] > 100 µM | [6] > 100 µM | [7] > 100 µM | [9] > 100 µM | [10] > 100 µM | [11] > 100 µM | [12] > 100 µM | [13] > 100 µM
